Experimental findings from patent publication US20210267886A1, “Gel-In-Oil Emulsion and Transdermally Absorbed Agent” (Nippon Shokubai Co., Ltd., priority 2018, published 2021) are described below.

The experiment concerns L929 cell-embedded collagen gel (cultured dermis model). Kind of experiment: Titer evaluation using cultured dermis model (quantification of DNA). The experiment is classed as cell-based. As for the experimental part: Ultrapure water was added to a collagen made of pig skin (manufactured by NH Foods Ltd.), and the obtained mixture was stirred overnight at 4° C. to prepare a 1% collagen solution. A L929 cell suspension (obtained by collecting cultured L929 cells and suspending the collected L929 cells in a culture medium) (6×10^5 cells) was centrifuged at 1000 rpm for 3 minutes, and the supernatant was removed by suction. A 20% fetal bovine serum (Fetal Bovine Serum, manufactured by FBS bio sera) was added to a Dulbecco's Modified Eagle Medium (DMEM) (manufactured by Thermo Fisher Scientific Inc.) prepared at a concentration of twice to prepare a 2-fold concentrated DMEM culture medium. L929 cells were suspended in a solution in which the 1% collagen solution and the 2-fold concentrated DMEM culture medium were mixed at a ratio of 1:1. This suspension was added to a 12-well plate at 1 ml/well, and was left to stand in an incubator for 1 hour to allow the suspension to turn into a gel.
A ring made of polycarbonate (outer diameter: 1.4 cm, inner diameter: 1.2 cm, and height: 0.3 cm) was placed on a L929 cell-embedded collagen gel (cultured dermis model) prepared in Synthesis Example 1. 200 μl of the bFGF-containing G/O emulsion described above was added to the inside the ring. 200 μl of DMEM culture medium was added to the outside of the ring, and the gel was placed in an incubator. The culture medium was changed every day, and the amounts of DNA in the L929 cell-embedded collagen gel after 1 day, 3 days, and 5 days were quantified. The quantification of DNA was performed as follows.
A liquid in which 1 ml of 0.25% collagenase solution (manufactured by Wako Pure Chemical Industries, Ltd.) was added to a L929 cell-embedded collagen gel was referred to as liquid E. A liquid in which a gel was dissolved by shaking the gel at 37° C. for around 1 hour was referred to as liquid F. Each sample was centrifuged at 1000 rpm for 3 minutes, and the supernatant was removed by suction. Triton X-100 (manufactured by Sigma) was added to the above-described PBS to prepare 0.1% Triton X-100-containing PBS, and the sample was suspended in 1 ml of the 0.1% Triton X-100-containing PBS. The obtained suspension was frozen at −80° C., and then thawed at room temperature. This operation was repeated 3 times. 180 μl of Hoechst (Hoechst (registered trademark), manufactured by Thermo Fisher Scientific K.K.) was mixed with 20 μl of sample, and the obtained mixture was added in a 96-well black plate. By using Fluorescent DNA Quantitation Kit Cat. #170-2480 (BIO-RAD), the quantification of DNA was performed with fluorescent brightness measurement under the conditions of an excitation filter of 355 nm and an absorption filter of 460 nm. The fluorescent brightness was measured 3 times, and the average was taken to obtain the amount of DNA. The quantification of DNA was performed before the start of the test (0 day), and 1 day, 3 days, 5 days, and 7 days after the start of the test.

In the case of “Comparative Example 3: bFGF (basic fibroblast growth factor) used as it was”, the “Amount of DNA” value (0 Day (before the start of the test)) was found to be 43 ng; the “Amount of DNA” value (After 1 day, 200 μl sample) was 74 ng; the “Amount of DNA” value (After 3 days, 200 μl sample) is reported as 145 ng; the “Amount of DNA” value (After 5 days, 200 μl sample) is reported as 187 ng; the “Amount of DNA” value (After 7 days, 200 μl sample) worked out at 192 ng.
